Laboratory results as given in PMC8234734, “Pharmacokinetics and Molecular Modeling Indicate nAChRα4-Derived Peptide HAEE Goes through the Blood–Brain Barrier” (Biomolecules, 2021).

Columns and labels:
rats = experiment: Observation of toxic effects after repeated administration to rats; conditions: administered repeatedly (daily for 28 days, 300 μg/kg)
[1] = Distribution of HAEE in mouse tissues after i.p. bolus; format: in vivo; conditions: mice, i.p. bolus 300 μg/kg
Method: In the experiments on mice (Table 1, experimental group 6), a mixture of HAEE and [^3H]HAEE (50 µCi, at a dose of 300 µg/kg) in 200 µL of saline solution was injected intraperitoneally. The animals were decapitated at the end of the period specified by the protocol; blood and studied tissues were collected in weighed plastic tubes, frozen with liquid nitrogen and weighed. When calculating the volumetric concentrations of the total amount of the HAEE peptide (labeled, unlabeled or their mixture) in the blood, the density of the blood was taken equal to 1.056 g/mL [12].
All quantitative values are given as means ± standard deviation.
Within the study, bioavailability of HAEE for several organs and tissues was analyzed with i.p. bolus administration to mice at a dose of 300 μg/kg. The quantity of HAEE in the blood, brain, kidneys, liver, heart and omentum was determined at 2, 4, 6, 10, 15 and 20 min after peptide administration. For all tissues, similar changes in the concentrations of HAEE over time were observed (Figure 3A–C). These were characterized by a bimodal relationship with peaks at 4 and 10–15 min.
Tissue bioavailability of HAEE for the brain was about 3%, which is typical for most pharmacological substances. […] This may indicate accumulation of HAEE in the brain parenchyma due to its active transfer through the BBB and further binding and retention at the affinity sites of neuronal protein targets.

[2] = Pharmacokinetics of HAEE in rabbit blood after single i.v. bolus; format: in vivo
Method: In experiments on rabbits (Table 1, experimental group 1), peptide administration and blood sampling were performed through the large ear veins. To restrict movement, the rabbit was placed in a restrainer with a head hole. Into the right ear, through the large ear vein, 4000 IU of heparin (FSUE “Moscow Endocrine Plant”, Moscow, Russia) in 0.8 mL of saline solution was injected using an insulin syringe, and after 5 min a Flexicath G22 intravenous catheter (Medica LLC, Ivanovo, Russia) was installed into the large ear vein of the left ear for subsequent blood sampling.
A 0.5 mL of the mixture of HAEE and [^3H]HAEE (2000 µCi, at a dose of 120 µg/kg) was injected with an insulin syringe into the right ear vein for 10–15 s, and after 2, 4, 6, 10, 20, 30, 60, 90 and 120 min, approximately 0.5 mL of venous blood was collected through the catheter and placed into pre-weighed plastic tubes. Immediately after collection, blood tubes were frozen in liquid nitrogen and weighed.
(§1) Frozen and weighed tissue samples in plastic tubes were freeze-dried for 48 h. The freeze-dried tissue samples were heated at 65 °C for 30 min, after which they were homogenized, and the peptide fraction was extracted with 90% aqueous acetonitrile containing 1% TFA [13]. To facilitate HPLC analysis of radioactively labeled HAEE and normalize the loss of the peptide during extraction, 10 μg of HAEE was added to the extraction solution for each sample. After centrifugation, the solution containing HAEE and blood components was dried under reduced pressure, stripped with methanol and re-centrifuged. The resulting solution containing a mixture of HAEE and [^3H]HAEE was subjected to evaporation under reduced pressure, re-extraction with 0.1% aqueous TFA solution and subsequent centrifugation. Quantitative analysis of the HAEE peptide was performed using HPLC on a Kromasil C18 column, 4 × 150 mm (Nouryon-Separation Products, Bohus, Sweden) in methanol concentration gradient (12–26% for 13 min), in 0.1% HFBA (heptafluorobutyric acid). The fraction containing the HAEE peptide was collected and its [^3H]HAEE content was determined by liquid scintillation counting. The obtained radioactivity value was normalized to the area of the HAEE peak in the chromatogram (UV absorbance at 220 nm).
(§2) To calculate the pharmacokinetic parameters, we used the values of HAEE peptide concentrations in blood and tissues averaged over three (rabbit) or six (rats and mice) animals. All quantitative values are given as means ± standard deviation. The calculation of pharmacokinetic parameters was performed by combining the model and non-model approaches using the software Borgia 1.03 (NPP Nauka Plus, Rovno, Ukraine) and SigmaPlot 11.0 (Systat Software, San Jose, CA, USA).
Taking this into account, to determine the pharmacokinetic characteristics of HAEE after systemic administration to rabbits, we analyzed the peptide content in the blood for a long period of time, from 2 to 120 min. The peptide was administered i.v. at a dose of 120 μg/kg.

[3] = tested on: B6C3-Tg (APPswe, PSEN1-dE9) 85Dbo/j mice; conditions: intravenous injections of HAEE; control animals 14.2 ± 3.1; cited from earlier work
From the text: (§3) The tetrapeptide HAEE had been proposed as one of the candidate molecules for inhibiting cerebral amyloidogenesis in AD [7]. This peptide is a synthetic analogue of the 35-His-Ala-Glu-Glu-38 (35-HAEE-38) fragment of the extracellular N-terminal domain of subunit α4 of the α4β2 nAChR. This fragment (conservative for humans, mice and chicken) forms the interface for the interaction of α4β2 nAChR with Aβ [5]. It has been previously shown by molecular modeling methods that this interaction is stabilized by ion bridges between the complementary charged side groups of the H/E and E/H amino acid ...

α4β2 nAChR = conditions: model oocytes, exogenous HAEE; cited from earlier work
From the text: as §3

[4] = In vitro stability assay of HAEE in human plasma; format: in vitro ADME; conditions: 1 mM in PBS, 20 µL diluted in 80 µL fresh human plasma, 37 °C, 24 h, MeOH precipitation, RP-HPLC UV 205 nm; data not shown
Method: An in vitro assay of the unlabeled peptide stability was performed as described in [19]. Briefly, HAEE was prepared as a 1 mM solution in phosphate-buffered saline and 20 µL of the peptide solution was diluted in 80 µL of human plasma (freshly taken). The solution was incubated at 37 °C for different times, and the reaction was stopped by adding the Roche cOmplete Protease Inhibitor Cocktail (Roche Molecular Biochemicals, Mannheim, Germany). The bulk of the plasma proteins (but none of the peptide) was precipitated in cold methanol (1:4 (v/v) mixture/MeOH) for 1 h at […]. The precipitated proteins were pelleted by centrifugation at 10,000× g for 10 min at 4 °C. The supernatant containing the peptide was concentrated five times under vacuum and separated by RP-HPLC. The area of the peak (UV absorbance at 205 nm) corresponding to the intact peptide was measured and compared with an equivalent sample incubated in phosphate-buffered saline.

[5] = Pharmacokinetics of HAEE in rat blood after single i.v. bolus (dose dependence, chronic administration); conditions: for Cmax (maximum concentration in the blood) / AUC(0–∞) / T1/2(el) (elimination half-life) / Tmax: rat blood; for Cmax (maximum concentration in the blood): n = 6, sampling 2-30 min; for AUC(0–∞) / T1/2(el) (elimination half-life) / Tmax / ClT (total body clearance) / Kel (elimination rate constant, central compartment) / MRT (residence time) / Vd(c) (volume of distribution in the central compartment at Cmax) / Vd(extrap) / Vd(β) (volume of distribution in the elimination phase): n = 6
Method: In experiments on rats (Table 1, experimental groups 2–5), intravenous (i.v.) administration of the peptide and blood sampling were performed through the jugular veins. For this, in rats anesthetized with a mixture of ketamine (91 mg/kg) and xylazine (9.1 mg/kg), on the ventral side, in the area adjacent to the forelimbs and neck, two longitudinal skin incisions about 2.5 cm long were made on the right and left, and the jugular veins were dissected. An intravenous Flexicath G24 catheter (for heparin and peptide administration) (Medica LLC, Ivanovo, Russia) was installed in the left jugular vein and Flexicath G22 (for blood collection) in the right jugular vein. To prevent blood coagulation, 80 μL of heparin (5000 I.U./mL) was injected through the Flexicath G24 port before the injection of the peptide, and after 5 min a mixture of HAEE and [^3H]HAEE (400 μCi, in doses of 50, 300 or 900 μg/kg) in 200 μL of saline solution was injected for 10–15 s. Following that, after 2, 4, 6, 10, 20 and 30 min, approximately 0.3 mL of venous blood was collected into pre-weighed plastic tubes. After collection, the blood tubes were immediately frozen in liquid nitrogen and weighed. Before the pharmacokinetic study, rats in experimental group 5 were injected daily with i.p. peptide HAEE at a dose of 300 μg/kg for 28 days.
as §1, §2

[6] = blood, brain, kidneys, liver, heart, omentum
[7] = rabbit blood, single i.v. bolus 120 μg/kg, n = 3
[8] = rabbit, single i.v. bolus 120 μg/kg, n = 3
[9] = single i.v. bolus 300 μg/kg after a 28 day course of unlabeled HAEE 300 μg/kg/day
[10] = rat, i.v. bolus, range over doses of 50, 300 and 900 µg/kg
[11] = rat, single i.v. bolus 50 μg/kg
[12] = rat, single i.v. bolus 300 μg/kg after a 28 day course of unlabeled HAEE 300 μg/kg/day
[13] = rat, single i.v. bolus 300 μg/kg
[14] = rat, single i.v. bolus 900 μg/kg

Substance: Acetyl-His-Ala-Glu-Glu-Amide [HAEE]
- Visible toxic effects and abnormalities in animal behavior (rats): did not cause visible toxic effects and abnormalities in animal behavior
- AUC(0–20), blood ([1]; blood, 0–20 min, n = 6 per time point, [3H]HAEE): 2110 (ng/g) × min
- fT × 100%, brain ([1]; brain): about 3%
- AUC(0–20), brain ([1]; brain, 0–20 min, n = 6 per time point): 70 (ng/g) × min
- AUC(0–20), heart ([1]; heart, 0–20 min, n = 6 per time point): 845 (ng/g) × min
- AUC(0–20), kidney ([1]; kidney, 0–20 min, n = 6 per time point): 3437 (ng/g) × min
- AUC(0–20), liver ([1]; liver, 0–20 min, n = 6 per time point): 777 (ng/g) × min
- AUC(0–20), omentum ([1]; omentum, 0–20 min, n = 6 per time point): 395 (ng/g) × min
- Time of first peak of HAEE concentration in tissues (bimodal relationship) [1, 6]: 4 min
- Time of second peak of HAEE concentration in tissues (bimodal relationship) [1, 6]: 10 to 15 min
- Cmax (maximum concentration in the blood) ([2]; rabbit blood, single i.v. bolus 120 μg/kg HAEE + [3H]HAEE, n = 3, sampling 2-120 min, HPLC + liquid scintillation): 255 ng/mL
- T1/2(el) (elimination half-life) [2, 7]: 20 min
- Tmax [2, 7]: 4 min
- AUC(0–∞) ([2]; rabbit blood, single i.v. bolus 120 μg/kg, n = 3, 0-4 min by trapezoidal method): 4421 (ng/mL) × min
- ClT (total body clearance) [2, 8]: 100 mL/min
- Kel (elimination rate constant, central compartment) [2, 8]: 0.035 min⁻¹
- MRT (residence time) [2, 8]: 29 min
- Vd(c) (volume of distribution in the central compartment at Cmax) [2, 8]: 862 mL
- Vd(extrap) [2, 8]: 3194 mL
- Vd(β) (volume of distribution in the elimination phase) [2, 8]: 2860 mL
- Average number of amyloid plaques in a brain section [3]: 5.8 ± 2.1
- Effect on amyloid aggregates formed upon contact with α4β2 nAChR (α4β2 nAChR): are destroyed
- Stability in human plasma (intact peptide peak area vs sample in PBS) [4]: no significant degradation
- Cmax (maximum concentration in the blood) ([5]; single i.v. bolus 50 μg/kg HAEE + [3H]HAEE, HPLC + liquid scintillation): 73.9 ng/mL
- AUC(0–∞) ([5]; single i.v. bolus 50 μg/kg): 1383 (ng/mL) × min
- T1/2(el) (elimination half-life) ([5]; single i.v. bolus 50 μg/kg): 23 min
- Tmax ([5]; single i.v. bolus 50 μg/kg): 4 min
- Cmax (maximum concentration in the blood) ([5]; single i.v. bolus 300 μg/kg HAEE + [3H]HAEE, HPLC + liquid scintillation): 439 ng/mL
- AUC(0–∞) [5, 9]: 12,137 (ng/mL) × min
- T1/2(el) (elimination half-life) [5, 9]: 29 min
- Tmax [5, 9]: 4 min
- Cmax (maximum concentration in the blood) [5, 9]: 444 ng/mL
- AUC(0–∞) ([5]; single i.v. bolus 300 μg/kg): 11,340 (ng/mL) × min
- T1/2(el) (elimination half-life) ([5]; single i.v. bolus 300 μg/kg): 22 min
- Tmax ([5]; single i.v. bolus 300 μg/kg): 4 min
- Cmax (maximum concentration in the blood) ([5]; single i.v. bolus 900 μg/kg HAEE + [3H]HAEE, HPLC + liquid scintillation): 1322 ng/mL
- AUC(0–∞) ([5]; single i.v. bolus 900 μg/kg): 47,133 (ng/mL) × min
- T1/2(el) (elimination half-life) ([5]; single i.v. bolus 900 μg/kg): 25 min
- Tmax ([5]; single i.v. bolus 900 μg/kg): 4 min
- ClT [5, 10]: 6.7 to 13 mL/min
- MRT [5, 10]: 32 to 36 min
- T1/2(el) [5, 10]: 22 to 25 min
- ClT (total body clearance) [5, 11]: 13.0 mL/min
- Kel (elimination rate constant, central compartment) [5, 11]: 0.031 min⁻¹
- MRT (residence time) [5, 11]: 33 min
- Vd(c) (volume of distribution in the central compartment at Cmax) [5, 11]: 107 mL
- Vd(extrap) [5, 11]: 504 mL
- Vd(β) (volume of distribution in the elimination phase) [5, 11]: 425 mL
- ClT (total body clearance) [5, 12]: 8.7 mL/min
- Kel (elimination rate constant, central compartment) [5, 12]: 0.024 min⁻¹
- MRT (residence time) [5, 12]: 42 min
- Vd(c) (volume of distribution in the central compartment at Cmax) [5, 12]: 111 mL
- Vd(extrap) [5, 12]: 382 mL
- Vd(β) (volume of distribution in the elimination phase) [5, 12]: 362 mL
- ClT (total body clearance) [5, 13]: 9.3 mL/min
- Kel (elimination rate constant, central compartment) [5, 13]: 0.031 min⁻¹
- MRT (residence time) [5, 13]: 32 min
- Vd(c) (volume of distribution in the central compartment at Cmax) [5, 13]: 122 mL
- Vd(extrap) [5, 13]: 296 mL
- Vd(β) (volume of distribution in the elimination phase) [5, 13]: 299 mL
- ClT (total body clearance) [5, 14]: 6.7 mL/min
- Kel (elimination rate constant, central compartment) [5, 14]: 0.028 min⁻¹
- MRT (residence time) [5, 14]: 36 min
- Vd(c) (volume of distribution in the central compartment at Cmax) [5, 14]: 108 mL
- Vd(extrap) [5, 14]: 291 mL
- Vd(β) (volume of distribution in the elimination phase) [5, 14]: 237 mL
- Effect of chronic administration on accumulation and pharmacokinetics ([5]; rats, 28 days daily 300 μg/kg then i.v. bolus 300 μg/kg, n = 6 vs intact rats n = 6): does not cause its accumulation in rats and does not affect the nature of its pharmacokinetics
